Test results as given in the NIST ThermoML archive (doi:10.1016/j.jct.2013.10.038).
Numbers after ± are expanded uncertainties.

Assay: activity coefficient (dimensionless); of the first substance listed, at infinite dilution; xn = mol fraction of the nth substance listed
Settings: 303.15 K; 101 kPa; Liquid; Chromatography; x1 = 0

| SMILES | activity coefficient |
| --- | --- |
| ClCCCl [1,2-dichloroethane] + CCCCCCn1cc[n+](C)c1.O=C([O-])C(F)(F)F | 0.62 ± 0.07 |
| Cc1ccccc1C [1,2-dimethylbenzene] + CCCCCCn1cc[n+](C)c1.O=C([O-])C(F)(F)F | 3.54 ± 0.37 |
| Cc1cccc(C)c1 [1,3-dimethylbenzene] + CCCCCCn1cc[n+](C)c1.O=C([O-])C(F)(F)F | 4.19 ± 0.44 |
| Cc1ccc(C)cc1 [1,4-dimethylbenzene] + CCCCCCn1cc[n+](C)c1.O=C([O-])C(F)(F)F | 4.12 ± 0.43 |
| C1COCCO1 [1,4-dioxane] + CCCCCCn1cc[n+](C)c1.O=C([O-])C(F)(F)F | 1.91 ± 0.2 |
| CC(C)=O [acetone] + CCCCCCn1cc[n+](C)c1.O=C([O-])C(F)(F)F | 1.69 ± 0.18 |
| CC#N [acetonitrile] + CCCCCCn1cc[n+](C)c1.O=C([O-])C(F)(F)F | 1.01 ± 0.1 |
| c1ccccc1 [benzene] + CCCCCCn1cc[n+](C)c1.O=C([O-])C(F)(F)F | 2.05 ± 0.22 |
| Brc1ccccc1 [bromobenzene] + CCCCCCn1cc[n+](C)c1.O=C([O-])C(F)(F)F | 2.18 ± 0.23 |
| Clc1ccccc1 [chlorobenzene] + CCCCCCn1cc[n+](C)c1.O=C([O-])C(F)(F)F | 2.27 ± 0.24 |
| ClCCl [dichloromethane] + CCCCCCn1cc[n+](C)c1.O=C([O-])C(F)(F)F | 0.64 ± 0.07 |
| CCO [ethanol] + CCCCCCn1cc[n+](C)c1.O=C([O-])C(F)(F)F | 0.21 ± 0.03 |
| CCOC(C)=O [ethyl acetate] + CCCCCCn1cc[n+](C)c1.O=C([O-])C(F)(F)F | 2.64 ± 0.28 |
| CCc1ccccc1 [ethylbenzene] + CCCCCCn1cc[n+](C)c1.O=C([O-])C(F)(F)F | 4.1 ± 0.43 |
| CO [methanol] + CCCCCCn1cc[n+](C)c1.O=C([O-])C(F)(F)F | 0.1 ± 0.03 |
| CC(C)O [propan-2-ol] + CCCCCCn1cc[n+](C)c1.O=C([O-])C(F)(F)F | 0.34 ± 0.04 |
| C=Cc1ccccc1 [styrene] + CCCCCCn1cc[n+](C)c1.O=C([O-])C(F)(F)F | 2.28 ± 0.24 |
| ClC(Cl)(Cl)Cl [tetrachloromethane] + CCCCCCn1cc[n+](C)c1.O=C([O-])C(F)(F)F | 0.62 ± 0.07 |
| C1CCOC1 [tetrahydrofuran] + CCCCCCn1cc[n+](C)c1.O=C([O-])C(F)(F)F | 1.95 ± 0.2 |
| Cc1ccccc1 [toluene] + CCCCCCn1cc[n+](C)c1.O=C([O-])C(F)(F)F | 2.97 ± 0.31 |
| ClC(Cl)Cl [trichloromethane] + CCCCCCn1cc[n+](C)c1.O=C([O-])C(F)(F)F | 0.08 ± 0.03 |

Same assay, conditions: 313.15 K; 101 kPa; Liquid; Chromatography; x1 = 0

| SMILES | activity coefficient |
| --- | --- |
| ClCCCl [1,2-dichloroethane] + CCCCCCn1cc[n+](C)c1.O=C([O-])C(F)(F)F | 0.75 ± 0.08 |
| Cc1ccccc1C [1,2-dimethylbenzene] + CCCCCCn1cc[n+](C)c1.O=C([O-])C(F)(F)F | 3.67 ± 0.39 |
| Cc1cccc(C)c1 [1,3-dimethylbenzene] + CCCCCCn1cc[n+](C)c1.O=C([O-])C(F)(F)F | 4.25 ± 0.45 |
| Cc1ccc(C)cc1 [1,4-dimethylbenzene] + CCCCCCn1cc[n+](C)c1.O=C([O-])C(F)(F)F | 4.18 ± 0.44 |
| C1COCCO1 [1,4-dioxane] + CCCCCCn1cc[n+](C)c1.O=C([O-])C(F)(F)F | 1.92 ± 0.2 |
| CC(C)=O [acetone] + CCCCCCn1cc[n+](C)c1.O=C([O-])C(F)(F)F | 1.69 ± 0.18 |
| CC#N [acetonitrile] + CCCCCCn1cc[n+](C)c1.O=C([O-])C(F)(F)F | 1.05 ± 0.11 |
| c1ccccc1 [benzene] + CCCCCCn1cc[n+](C)c1.O=C([O-])C(F)(F)F | 2.07 ± 0.22 |
| Brc1ccccc1 [bromobenzene] + CCCCCCn1cc[n+](C)c1.O=C([O-])C(F)(F)F | 2.2 ± 0.23 |
| Clc1ccccc1 [chlorobenzene] + CCCCCCn1cc[n+](C)c1.O=C([O-])C(F)(F)F | 2.26 ± 0.24 |
| ClCCl [dichloromethane] + CCCCCCn1cc[n+](C)c1.O=C([O-])C(F)(F)F | 0.65 ± 0.07 |
| CCO [ethanol] + CCCCCCn1cc[n+](C)c1.O=C([O-])C(F)(F)F | 0.22 ± 0.03 |
| CCOC(C)=O [ethyl acetate] + CCCCCCn1cc[n+](C)c1.O=C([O-])C(F)(F)F | 2.8 ± 0.29 |
| CCc1ccccc1 [ethylbenzene] + CCCCCCn1cc[n+](C)c1.O=C([O-])C(F)(F)F | 4.16 ± 0.44 |
| CO [methanol] + CCCCCCn1cc[n+](C)c1.O=C([O-])C(F)(F)F | 0.11 ± 0.03 |
| CCCO [propan-1-ol] + CCCCCCn1cc[n+](C)c1.O=C([O-])C(F)(F)F | 0.24 ± 0.04 |
| CC(C)O [propan-2-ol] + CCCCCCn1cc[n+](C)c1.O=C([O-])C(F)(F)F | 0.35 ± 0.04 |
| C=Cc1ccccc1 [styrene] + CCCCCCn1cc[n+](C)c1.O=C([O-])C(F)(F)F | 2.39 ± 0.25 |
| ClC(Cl)(Cl)Cl [tetrachloromethane] + CCCCCCn1cc[n+](C)c1.O=C([O-])C(F)(F)F | 0.7 ± 0.07 |
| C1CCOC1 [tetrahydrofuran] + CCCCCCn1cc[n+](C)c1.O=C([O-])C(F)(F)F | 1.96 ± 0.21 |
| Cc1ccccc1 [toluene] + CCCCCCn1cc[n+](C)c1.O=C([O-])C(F)(F)F | 3.02 ± 0.32 |
| ClC(Cl)Cl [trichloromethane] + CCCCCCn1cc[n+](C)c1.O=C([O-])C(F)(F)F | 0.12 ± 0.03 |
